What was measured:
[1] = test system: Candida and Staphylococcus biofilms; test: biofilm assays (sustained inhibition and disruption), bacterial and fungal; type: cell-based, Candida albicans; Staphylococcus aureus; details: Tables 4 and 5
Method: In vitro biofilm formation was tested using two assays, sustained inhibition and disruption. Both assays assess biofilm formed on polystyrene plates. The first, tests the effects of amino acid solution on a developing biofilm, while the latter tests the effects of the solution on a pre-formed mature biofilm, both compared to media without supplemented amino acids.
(§1) Other amino acids in the blood of animals could combat bacterial and fungal biofilm and therefore may be useful in treating these bacterial and fungal infections that would lie on the external surfaces of infected animals such as humans and could also be used to combat these pathogens on instruments and surfaces that need to be treated. Two types of biofilm assays were performed: a sustained inhibition assay and a disruption assay. The sustained inhibition assay assessed the compound's ability to prevent biofilm development throughout all stages of biofilm formation, while the disruption assay assessed the compound's ability to break up an existing mature biofilm.
(§2) For fungal biofilm assays, all solutions were prepared in RPMI 1640 medium. All bacterial biofilm solutions were prepared in Tryptic Soy Broth (TSB), supplemented with 1% glucose (henceforth referred to as TSB-G). All subsequent procedures were performed in a manner that maintained sterility. A solution of each amino acid to be tested was prepared in weight to volume concentrations ranging from 0.1-5.0%. Amino acids were also tested in combinations. Compound solutions were homogenized with gentle agitation in the dark (4° C., 24 hours) before use.
Fungal strains were streaked on Yeast Peptone Dextrose (YPD) agar plates and incubated at 30° C. for 48 hours. A single colony from each strain to be tested was inoculated into YPD broth and grown for 12 hours, at 30° C., shaking at 225 rpm. For the fungal biofilm inhibition assay, 1 μl of saturated overnight cell culture was added to either 80 μL of RPMI-1640 or RPMI-1640 supplemented with the amino acid compound solution to be tested, in a 384-well plate. The cells were allowed to adhere to the plate for 90 minutes at 37° C. shaking at 350 rpm. Loosely bound cells were washed once with phosphate buffered saline (PBS) and 80 μl of RPMI-1640, or RPMI-1640 supplemented with the amino acid compound solution was added to the plate. The plate was further incubated for 24 hours at 37° C. shaking at 350 rpm. Media was carefully aspirated and the biofilm was measured by optical density at 600 nm. Twelve replicates were performed for each tested condition and the reported values are normalized to the control (RPMI-1640 media only). For the fungal biofilm disruption assays, 80 μL of RPMI-1640 was added to the plate, along with 1 μL of overnight cell culture. The cells were allowed to adhere to the plate for 90 minutes at 37° C. shaking at 350 rpm. Loosely bound cells were washed once with PBS and 80 μL of RPMI-1640 was added to the plate. The plate was further incubated for 24 hours at 37° C. shaking at 350 rpm. Media was carefully aspirated from the mature biofilm and 80 μL of RPMI-1640, or RPMI-1640 supplemented with the amino acid compound solution to be tested, was gently added to the plate. The plate was further incubated for 24 hours at 37° C. shaking at 350 rpm. Media was carefully aspirated and the biofilm was measured by optical density at 600 nm. Twelve replicates were performed for each tested condition and the reported values are normalized to the control (RPMI-1640 media only).
Bacterial strains were streaked on Blood Agar plates (5% sheep blood in Tryptic Soy Agar) and incubated at 37° C. for 24 hours. A single colony from each strain to be tested was inoculated in a TSB broth and grown for 12 hours, at 37° C. shaking at 225 rpm. For the bacterial biofilm inhibition assays, 1 μL of saturated overnight cell culture was added to either 80 μL of TSB-G, or TSB-G supplemented with the amino acid compound solution to be tested, in a 384-well plate. […]

[2] = test system: bacteria (S. aureus) biofilm and fungal (C. albicans) biofilm; test: disruption biofilm assay, bacterial and fungal taken together; type: cell-based, Staphylococcus aureus; Candida albicans
Method: as §1, §2
(§3) Fungal strains were streaked on Yeast Peptone Dextrose (YPD) agar plates and incubated at 30° C. for 48 hours. A single colony from each strain to be tested was inoculated into YPD broth and grown for 12 hours, at 30° C., shaking at 225 rpm. For the fungal biofilm inhibition assay, 1 μl of saturated overnight cell culture was added to either 80 μL of RPMI-1640 or RPMI-1640 supplemented with the amino acid compound solution to be tested, in a 384-well plate. […] Media was carefully aspirated and the biofilm was measured by optical density at 600 nm. […] Media was carefully aspirated and the biofilm was measured by optical density at 600 nm. […]
(§4) Bacterial strains were streaked on Blood Agar plates (5% sheep blood in Tryptic Soy Agar) and incubated at 37° C. for 24 hours. […] Media was carefully aspirated and the biofilm was measured by optical density at 600 nm. […]

[3] = test system: bacteria (S. aureus) biofilm and fungal (C. albicans) biofilm; test: sustained inhibition biofilm assay, bacterial and fungal taken together; type: cell-based, Staphylococcus aureus; Candida albicans; details: 1% amino acid
Method: as §1, §2, §3, §4

[4] = test system: bacterial biofilms (MRSA); test: biofilm assays (sustained inhibition and/or disruption), bacterial; type: cell-based, Staphylococcus aureus; details: Tables 4 and 5
Method: as §1, §2
Bacterial strains were streaked on Blood Agar plates (5% sheep blood in Tryptic Soy Agar) and incubated at 37° C. for 24 hours. A single colony from each strain to be tested was inoculated in a TSB broth and grown for 12 hours, at 37° C. shaking at 225 rpm. For the bacterial biofilm inhibition assays, 1 μL of saturated overnight cell culture was added to either 80 μL of TSB-G, or TSB-G supplemented with the amino acid compound solution to be tested, in a 384-well plate. The cells were allowed to adhere to the plate for 60 minutes at 37° C. without shaking. The media was carefully aspirated and 80 μL of TSB-G, or TSB-G supplemented with the amino acid compound solution was added to the plate. The plate was further incubated for 24 hours at 37° C. without shaking. Media was carefully aspirated and the biofilm was measured by optical density at 600 nm. Eight or twelve replicates were performed for each tested condition and the reported values are normalized to the control (TSB-G media only). For the bacterial biofilm disruption assays, 80 μL of TSB-G was added to the plate, along with 1 μL of overnight cell culture. The cells were allowed to adhere to the plate for 60 minutes at 37° C. with no shaking. The media was carefully aspirated and 80 μL of TSB-G was added to the plate. The plate was further incubated for 24 hours at 37° C. with no shaking. Media was carefully aspirated from the mature biofilm and 80 μL of TSB-G, or TSB-G supplemented with the amino acid to be tested, was gently added to the plate. The plate was further incubated for 24 hours at 37° C. without shaking. Media was aspirated and the biofilm was measured by optical density at 600 nm. Twelve replicates were performed for each tested condition and the reported values are normalized to the control (TSB-G media only).

[5] = disruption, bacterial and fungal biofilm, 1% amino acid

Structure (SMILES)	effect on Candida and Staphylococcus biofilms in inhibition and disruption assays [1]	Reduce Both [2, 5]	Reduce Both [3]	effect on MRSA biofilms in inhibition and disruption assays [4]	Reduce Both [2]
N[C@@H](CC(=O)O)C(=O)O [Aspartic Acid, L-aspartic acid]	both inhibit and disrupt	●● (two dots [i.e. ●●] signifies major effect (greater than about 30% change))	●● (two dots [i.e. ●●] signifies major effect (greater than about 30% change))	both inhibited and disrupted	–
N[C@@H](CS)C(=O)O [Cysteine, L-cysteine]	both inhibit and disrupt	●● (two dots [i.e. ●●] signifies major effect (greater than about 30% change))	●● (two dots [i.e. ●●] signifies major effect (greater than about 30% change))	both inhibited and disrupted	–
N[C@@H](CCC(=O)O)C(=O)O [Glutamic Acid, L-glutamic acid]	both inhibit and disrupt	–	●● (two dots [i.e. ●●] signifies major effect (greater than about 30% change))	both inhibited and disrupted	● (a single dot [i.e. ●] signifies minor effect (from about 10 to about 30% change))

Reference: patent US12226386B2, “Compositions and methods for treating biofilms” (The Regents of the University of California, priority 2018, dated 2025)
